The values that follow come from US20030176445A1, “Substituted 1,4-dihydropyridine compounds as bradykinin antagonists” (Pfizer Inc., priority 1999, published 2003).

Broadly, the melting point is the temperature, or range, at which the solid turns liquid.

Structures are written as SMILES. Where a name gives a salt, the structure may show the parent alone.

As for `CCCCC1(O)C2CCC1CC(N1CCN(C(=O)CC3=C(C(=O)OC)C(c4c(Cl)cccc4Cl)C(C(=O)OC)=C(CCc4nccs4)N3)CC1)C2` (stereo not drawn) (as salt: hydrochloride) [Example 6, Dimethyl 4-(2,6-dichlorophenyl)-2-[2-[4-(8-butyl-8-hydroxybicyclo[3.2.1]oct-3-yl)-1-piperazinyl]-2-oxoethyl]-6-[2-(1,3-thiazol-2-yl)ethyl]-1,4-dihydro-3,5-pyridinedicarboxylate], the melting point was 174 to 177 °C (dec.).
With `COC(=O)C1=C(CCc2nccs2)NC(CC(=O)N2CCN(C3CC4CCC(C3)C4(O)C(C)C)CC2)=C(C(=O)OC)C1c1c(Cl)cccc1Cl` (stereo not drawn) (as salt: hydrochloride) [Example 7, Dimethyl 4-(2,6-dichlorophenyl)-2-[2-[4-(8-hydroxy-8-isopropylbicyclo[3.2.1]oct-3-yl)-1-piperazinyl]-2-oxoethyl]-6-[2-(1,3-thiazol-2-yl)ethyl]-1,4-dihydro-3,5-pyridinedicarboxylate], the melting point is 178 to 180 °C (dec.).
On to `COC(=O)C1=C(CCc2nccs2)NC(CC(=O)N2CCN(C3CC4CC(=O)CC4C3)CC2)=C(C(=O)OC)C1c1c(Cl)cccc1Cl` (stereo not drawn) (as salt: hydrochloride) [Example 10, Dimethyl 4-(2,6-dichlorophenyl)-2-[2-oxo-2-[4-(5-oxooctahydro-2-pentalenyl)-1-piperazinyl]ethyl]-6-(2-(1,3-thiazol-2-yl)ethyl)-1,4-dihydro-3,5-pyridinedicarboxylate], for which the melting point was 214 to 220 °C (dec.).
